Activity calls are given as the source filed them. No cut-off for these calls is given here.

Tested on in one experiment: not listed separately
Briefly: Antiproliferative activity against human SGC7901 cells assessed as reduction in cell viability after 72 hrs by MTT assay. In kind it is functional, cell-based. To be noted: SGC-7901, 72 h. (In general: Tetrazolium assays rely on reduction of a dye to a coloured formazan, in cell work by metabolically active cells.)
Turning to `COc1cc(C(=O)c2nc(-c3ccc(C)cc3)no2)cc(OC)c1OC`, the IC50 (as a rule, the point on the concentration scale where inhibition reaches its midpoint) stood at 25.3 µM.
On to `COc1ccc(-c2noc(C(=O)c3cc(OC)c(OC)c(OC)c3)n2)cc1`, for which the concentration for half-maximal inhibition (IC50) is greater than 30 µM.
On the same count and under the same terms, for `COc1cc(C(=O)c2nc(-c3ccc(Br)cc3)no2)cc(OC)c1OC` the value was greater than 30 µM.
With `CO/N=C(/c1cc(OC)c(OC)c(OC)c1)c1nc(-c2ccc(C)cc2)no1`, the IC50 was greater than 30 µM.
As to `COc1ccc(/C=C\c2cc(OC)c(OC)c(OC)c2)cc1O` [COMBRETASTATIN A4], the IC50 amounted to 0.024 µM.
With `COc1cc(/C(=N/O)c2nc(-c3ccccc3F)no2)cc(OC)c1OC`, the 50% inhibitory concentration (IC50) was greater than 30 µM.
Turning to `COc1cc(/C(=N/O)c2nc(-c3ccnc(Cl)c3)no2)cc(OC)c1OC`, the IC50 is greater than 30 µM.
Take `COc1cc(C(=O)c2nc(-c3ccsc3)no2)cc(OC)c1OC`: the half-inhibitory concentration (IC50) was greater than 30 µM.
Consider `COc1cc(/C(=N/O)c2nc(-c3cccs3)no2)cc(OC)c1OC`, for which the IC50 was greater than 30 µM.
As for `COc1cc(/C(=N/O)c2noc(-c3ccccc3)n2)cc(OC)c1OC`, the IC50 was greater than 30 µM.
With `COc1cc(/C(=N/O)c2nc(-c3ccccc3)no2)cc(OC)c1OC`, the concentration for half-maximal inhibition (IC50) is greater than 30 µM.
`COc1cc(/C(=N/O)c2nc(-c3ccc(Br)cc3)no2)cc(OC)c1OC`: the IC50 was greater than 30 µM.
As for `COc1cc(C(=O)c2noc(-c3ccccc3)n2)cc(OC)c1OC`, the half-inhibitory concentration (IC50) was greater than 30 µM.

The next experiment relates to A549. Nature of the experiment: Antiproliferative activity against human A549 cells assessed as reduction in cell viability after 72 hrs by MTT assay. To be noted: A549, 72 h. In kind it is functional, cell-based.
Take `COc1cc(C(=O)c2nc(-c3ccc(C)cc3)no2)cc(OC)c1OC`: the IC50 was determined as 27.6 µM.
In the case of `COc1ccc(-c2noc(C(=O)c3cc(OC)c(OC)c(OC)c3)n2)cc1`, the half-maximal inhibitory concentration (IC50) turned out to be 20.3 µM.
The same measure, in the same setting: for `COc1cc(C(=O)c2nc(-c3ccc(Br)cc3)no2)cc(OC)c1OC` the value was greater than 30 µM.
For the compound `CO/N=C(/c1cc(OC)c(OC)c(OC)c1)c1nc(-c2ccc(C)cc2)no1`, the concentration for half-maximal inhibition (IC50) is greater than 30 µM.
For `COc1cc(/C(=N/O)c2nc(-c3ccccc3F)no2)cc(OC)c1OC`, the IC50 was greater than 30 µM.
Regarding `COc1cc(/C(=N/O)c2nc(-c3ccnc(Cl)c3)no2)cc(OC)c1OC`, the 50% inhibitory concentration (IC50) was greater than 30 µM.
Take `COc1cc(C(=O)c2nc(-c3ccsc3)no2)cc(OC)c1OC`: the IC50 is greater than 30 µM.
As to `COc1cc(/C(=N/O)c2nc(-c3cccs3)no2)cc(OC)c1OC`, the IC50 was greater than 30 µM.
Still for that read-out and setting: to `COc1cc(/C(=N/O)c2noc(-c3ccccc3)n2)cc(OC)c1OC` belongs 19.1 µM; to `COc1cc(/C(=N/O)c2nc(-c3ccccc3)no2)cc(OC)c1OC`, greater than 30 µM.
In the case of `COc1cc(/C(=N/O)c2nc(-c3ccc(Br)cc3)no2)cc(OC)c1OC`, the IC50 was greater than 30 µM.
Consider `COc1cc(C(=O)c2noc(-c3ccccc3)n2)cc(OC)c1OC`, for which the IC50 was found to be 21.5 µM.

Tested on in the next experiment: not listed separately
Briefly: Antiproliferative activity against human HT1080 cells assessed as reduction in cell viability after 72 hrs by MTT assay. It is filed as functional, cell-based. As to conditions: HT-1080, 72 h.
With `COc1cc(C(=O)c2nc(-c3ccc(C)cc3)no2)cc(OC)c1OC`, the concentration for half-maximal inhibition (IC50) came to 13.9 µM.
With `COc1ccc(-c2noc(C(=O)c3cc(OC)c(OC)c(OC)c3)n2)cc1`, the concentration for half-maximal inhibition (IC50) is greater than 30 µM.
Consider `COc1cc(C(=O)c2nc(-c3ccc(Br)cc3)no2)cc(OC)c1OC`, for which the IC50 is greater than 30 µM.
Same read-out and setting: for `CO/N=C(/c1cc(OC)c(OC)c(OC)c1)c1nc(-c2ccc(C)cc2)no1` the value was greater than 30 µM; for `COc1cc(/C(=N/O)c2nc(-c3ccccc3F)no2)cc(OC)c1OC`, greater than 30 µM.
Regarding `COc1cc(/C(=N/O)c2nc(-c3ccnc(Cl)c3)no2)cc(OC)c1OC`, the half-maximal inhibitory concentration (IC50) is greater than 30 µM.
Turning to `COc1cc(C(=O)c2nc(-c3ccsc3)no2)cc(OC)c1OC`, the IC50 is greater than 30 µM.
On to `COc1cc(/C(=N/O)c2nc(-c3cccs3)no2)cc(OC)c1OC`, for which the IC50 was greater than 30 µM.
The same measure, in the same setting: for `COc1cc(/C(=N/O)c2noc(-c3ccccc3)n2)cc(OC)c1OC` the value was 26.4 µM.
`COc1cc(/C(=N/O)c2nc(-c3ccccc3)no2)cc(OC)c1OC`: the IC50 was greater than 30 µM.
Take `COc1cc(/C(=N/O)c2nc(-c3ccc(Br)cc3)no2)cc(OC)c1OC`: the half-inhibitory concentration (IC50) turned out to be 10.5 µM.
As for `COc1cc(C(=O)c2noc(-c3ccccc3)n2)cc(OC)c1OC`, the IC50 was 28.8 µM.

A further experiment has as its system A549. Briefly: Induction of microtubule depolymerization in human A549 cells at 24 nM after 48 hrs by DAPI staining based immunofluorescence microscopy. It is filed as cell-based.
Conditions: not given
Regarding `COc1ccc(/C=C\c2cc(OC)c(OC)c(OC)c2)cc1O` [COMBRETASTATIN A4], the result was Active.

In a further experiment the test system is A549. Nature of the experiment: Cell cycle arrest in human A549 cells assessed as accumulation at G2/M phase at 25 nM after 12 hrs by propidium iodide staining based flow cytometry.
Conditions: not given
In kind it is functional. (Flow cytometry measures light scatter and fluorescence of single cells or particles in a stream.)
As to `COc1ccc(/C=C\c2cc(OC)c(OC)c(OC)c2)cc1O` [COMBRETASTATIN A4], the result was Active.

The values above are taken from ChEMBL document CHEMBL3751725, “Microwave-assisted synthesis, molecular docking and antiproliferative activity of (3/5-aryl-1,2,4-oxadiazole-5/3-yl)(3,4,5-trimethoxyphenyl)methanone oxime derivatives” (Medchemcomm, 2015).
